Molecules are shown by their SMILES.

The subject of data set [1] is RAW264.7. Kind of data set: Inhibition of LPS-induced NO production in mouse RAW264.7 cells at 5 uM pretreated for 2 hrs followed by LPS stimulation for 24 hrs by Griess assay relative to control. Type of data set: functional. The following applies: time 26 hrs. (In general: Griess reagent forms a coloured azo dye with nitrite.)
Data set [2] relates to RAW264.7. Kind of data set: Inhibition of LPS-induced NO production in mouse RAW264.7 cells at 20 uM pretreated for 2 hrs followed by LPS stimulation for 24 hrs by Griess assay relative to control. Type of data set: functional. The following applies: time 26 hrs.
Data set [3] deals with RAW264.7. Kind of data set: Inhibition of LPS-induced NO production in mouse RAW264.7 cells at 10 uM pretreated for 2 hrs followed by LPS stimulation for 24 hrs by Griess assay relative to control. The following applies: time 26 hrs. The data set is classed as functional.
Data set [4] concerns RAW264.7. Description: Inhibition of LPS-induced NO production in mouse RAW264.7 cells pretreated for 2 hrs followed by LPS stimulation for 24 hrs by Griess assay. The data set is classed as functional, cell-based.
Data set [5] can be described thus: Cytotoxicity against mouse RAW264.7 cells assessed as cell viability at 40 uM incubated for 24 hrs by MTT assay relative to control. The following applies: read-out: Activity. Type of data set: toxicity, cell-based.

Take `CC(C)(C)OC(=O)CC(=O)Nc1nc2c(s1)C[C@]1(C)[C@H]3C[C@@H](O)[C@@H]4C([C@]5(C)CC[C@@H](C(C)(C)O)O5)CC[C@@]4(C)[C@]3(C)CC[C@H]1C2(C)C` (stereo partly drawn): the inhibition (commonly the drop in the measured response relative to a control, in per cent) at 5 µM with RAW264.7 [1] was 24.5%. Also, the inhibition at 20 µM in the data set with RAW264.7 [2] was 67.2%. Also, the inhibition at 10 µM with RAW264.7 [3] was 40.7%. The IC50 (usually the concentration at which inhibition is half-maximal) with RAW264.7 [4] turned out to be 9.17 µM. Besides, the viability at 24 h, 40 µM in data set [5] is over 90%.
As to `CC(C)(O)[C@@H]1CC[C@@](C)(C2CC[C@]3(C)[C@@H]2[C@H](O)C[C@@H]2[C@@]4(C)Cc5sc(NC(=O)C(F)(F)F)nc5C(C)(C)[C@@H]4CC[C@]23C)O1` (stereo partly drawn), in the data set on RAW264.7 [1], the inhibition at 5 µM worked out at 14.2%. Moreover, the inhibition at 20 µM with RAW264.7 [2] was 30.9%. For the same compound, the inhibition at 10 µM in the data set on RAW264.7 [3] was 20.6%. In the data set with RAW264.7 [4], the IC50 worked out at 25.7 µM. Also, in data set [5], the viability at 24 h, 40 µM is over 90%.
For `CC(C)(O)[C@H]1CC[C@@](C)(C2CC[C@]3(C)[C@@H]2[C@H](O)C[C@@H]2[C@@]4(C)CC[C@H](O)C(C)(C)[C@@H]4CC[C@]23C)O1` (stereo partly drawn), in the data set on RAW264.7 [1], the inhibition at 5 µM was determined as 13%. The inhibition at 20 µM with RAW264.7 [2] worked out at 30.3%. Further, the inhibition at 10 µM with RAW264.7 [3] is 19.7%. For the same compound, the IC50 in the data set on RAW264.7 [4] turned out to be 20.8 µM.
As to `CC(C)(O)[C@@H]1CC[C@@](C)(C2CC[C@]3(C)[C@@H]2[C@H](O)C[C@@H]2[C@@]4(C)Cc5sc(N)nc5C(C)(C)[C@@H]4CC[C@]23C)O1` (stereo partly drawn), in the data set with RAW264.7 [1], the inhibition at 5 µM is 11.4%. In the data set with RAW264.7 [2], the inhibition at 20 µM is 36.6%. For the same compound, in the data set on RAW264.7 [3], the inhibition at 10 µM worked out at 23.5%. Moreover, in the data set with RAW264.7 [4], the IC50 came to 26.1 µM. Further, the viability at 24 h, 40 µM in data set [5] was over 90%.
On to `CC(C)(C)OC(=O)CCCC(=O)Nc1nc2c(s1)C[C@]1(C)[C@H]3C[C@@H](O)[C@@H]4C([C@]5(C)CC[C@@H](C(C)(C)O)O5)CC[C@@]4(C)[C@]3(C)CC[C@H]1C2(C)C` (stereo partly drawn), for which the inhibition at 5 µM in the data set on RAW264.7 [1] was found to be 20.4%. Moreover, in the data set with RAW264.7 [2], the inhibition at 20 µM was 60.4%. In addition, the inhibition at 10 µM with RAW264.7 [3] was 41.2%. Besides, the IC50 with RAW264.7 [4] was 11.6 µM. The viability at 24 h, 40 µM in data set [5] was over 90%.
Turning to `CC(C)(C)OC(=O)CCCC(=O)Nc1nc2c(s1)C[C@]1(C)[C@H]3C[C@@H](O)[C@@H]4C([C@]5(C)CC[C@H](C(C)(C)O)O5)CC[C@@]4(C)[C@]3(C)CC[C@H]1C2(C)C` (stereo partly drawn), the inhibition at 5 µM in the data set with RAW264.7 [1] came to 14.2%. In addition, the inhibition at 20 µM in the data set on RAW264.7 [2] amounted to 18.1%. Moreover, the inhibition at 10 µM in the data set on RAW264.7 [3] was found to be 13.3%. Moreover, the IC50 with RAW264.7 [4] turned out to be 52 µM. Further, the viability at 24 h, 40 µM in data set [5] is over 90%.
With `CC(C)(O)[C@H]1CC[C@@](C)(C2CC[C@]3(C)[C@@H]2[C@H](O)C[C@@H]2[C@@]4(C)Cc5sc(NC(=O)OC(F)(F)F)nc5C(C)(C)[C@@H]4CC[C@]23C)O1` (stereo partly drawn), the inhibition at 5 µM with RAW264.7 [1] worked out at 8.01%. The inhibition at 20 µM in the data set on RAW264.7 [2] was found to be 37.5%. Further, in the data set on RAW264.7 [3], the inhibition at 10 µM is 21.2%. Moreover, the IC50 in the data set on RAW264.7 [4] was 35.6 µM. For the same compound, the viability at 24 h, 40 µM in data set [5] is over 90%.
As for `CC(C)(O)[C@H]1CC[C@@](C)(C2CC[C@]3(C)[C@@H]2[C@H](O)C[C@@H]2[C@@]4(C)Cc5sc(N)nc5C(C)(C)[C@@H]4CC[C@]23C)O1` (stereo partly drawn), in the data set with RAW264.7 [1], the inhibition at 5 µM was found to be 19%. Also, in the data set with RAW264.7 [2], the inhibition at 20 µM is 37.7%. Moreover, the inhibition at 10 µM with RAW264.7 [3] turned out to be 23.9%. Further, the 50% inhibitory concentration (IC50) in the data set on RAW264.7 [4] stood at 18.9 µM. In addition, the viability at 24 h, 40 µM in data set [5] is over 90%.
As for `CC(C)(O)[C@H]1CC[C@@](C)(C2CC[C@]3(C)[C@@H]2[C@H](O)C[C@@H]2[C@@]4(C)CC[C@H](OC(=O)CCC(=O)Nc5nnc(Cl)s5)C(C)(C)[C@@H]4CC[C@]23C)O1` (stereo partly drawn), the inhibition at 5 µM with RAW264.7 [1] amounted to 28.6%. Further, the inhibition at 20 µM in the data set on RAW264.7 [2] was determined as 57.9%. Further, in the data set with RAW264.7 [3], the inhibition at 10 µM stood at 47.3%. For the same compound, the IC50 with RAW264.7 [4] came out at 11.4 µM. The viability at 24 h, 40 µM in data set [5] is over 90%.
As for `CC(C)(O)[C@@H]1CC[C@@](C)(C2CC[C@]3(C)[C@@H]2[C@H](O)C[C@@H]2[C@@]4(C)CC[C@H](OC(=O)CCC(=O)Nc5nncs5)C(C)(C)[C@@H]4CC[C@]23C)O1` (stereo partly drawn), the inhibition at 5 µM in the data set with RAW264.7 [1] is 7.78%. In the data set with RAW264.7 [2], the inhibition at 20 µM was 58.6%. Also, in the data set on RAW264.7 [3], the inhibition at 10 µM worked out at 21.3%. The IC50 in the data set on RAW264.7 [4] amounted to 17.9 µM. For the same compound, in data set [5], the viability at 24 h, 40 µM is over 90%.
Turning to `CC(C)(C)OC(=O)NCCCCCCCC(=O)Nc1nc2c(s1)C[C@]1(C)[C@H]3C[C@@H](O)[C@@H]4C([C@]5(C)CC[C@@H](C(C)(C)O)O5)CC[C@@]4(C)[C@]3(C)CC[C@H]1C2(C)C` (stereo partly drawn), the inhibition at 5 µM in the data set on RAW264.7 [1] amounted to 19.9%. In addition, in the data set with RAW264.7 [2], the inhibition at 20 µM was determined as 39.4%. Also, the inhibition at 10 µM with RAW264.7 [3] was found to be 29.9%. The IC50 in the data set with RAW264.7 [4] amounted to 33.1 µM. For the same compound, the viability at 24 h, 40 µM in data set [5] was over 90%.
In the same order, the values of `CC(C)(C)OC(=O)NCCCCCCCCCCC(=O)Nc1nc2c(s1)C[C@]1(C)[C@H]3C[C@@H](O)[C@@H]4C([C@]5(C)CC[C@@H](C(C)(C)O)O5)CC[C@@]4(C)[C@]3(C)CC[C@H]1C2(C)C` (stereo partly drawn) are 1.99%, 17.1%, 6.18%, 50.6 µM and over 90%.
`CC(C)(C)OC(=O)NCCCCCC(=O)Nc1nc2c(s1)C[C@]1(C)[C@H]3C[C@@H](O)[C@@H]4C([C@]5(C)CC[C@@H](C(C)(C)O)O5)CC[C@@]4(C)[C@]3(C)CC[C@H]1C2(C)C` (stereo partly drawn): in the data set with RAW264.7 [1], the inhibition at 5 µM is 27.4%. For the same compound, the inhibition at 20 µM in the data set on RAW264.7 [2] amounted to 48.5%. Further, in the data set with RAW264.7 [3], the inhibition at 10 µM is 43.6%. Moreover, the IC50 in the data set on RAW264.7 [4] amounted to 24.5 µM. Besides, in data set [5], the viability at 24 h, 40 µM is over 90%.
As for `CC(C)(O)[C@@H]1CC[C@@](C)(C2CC[C@]3(C)[C@@H]2[C@H](O)C[C@@H]2[C@@]4(C)Cc5sc(NC(=O)OC(F)(F)F)nc5C(C)(C)[C@@H]4CC[C@]23C)O1` (stereo partly drawn), the inhibition at 5 µM with RAW264.7 [1] came to 6.07%. Moreover, the inhibition at 20 µM with RAW264.7 [2] turned out to be 22.2%. Besides, the inhibition at 10 µM with RAW264.7 [3] turned out to be 6.84%. In addition, the IC50 in the data set with RAW264.7 [4] came to 41.6 µM. In data set [5], the viability at 24 h, 40 µM is over 90%.
Consider `CC(C)(O)[C@@H]1CC[C@@](C)(C2CC[C@]3(C)[C@@H]2[C@H](O)C[C@@H]2[C@@]4(C)CC[C@H](OC(=O)CCC(=O)Nc5nnc(Cl)s5)C(C)(C)[C@@H]4CC[C@]23C)O1` (stereo partly drawn), for which the inhibition at 5 µM with RAW264.7 [1] was found to be 32.5%. For the same compound, in the data set on RAW264.7 [2], the inhibition at 20 µM worked out at 45.7%. The inhibition at 10 µM in the data set on RAW264.7 [3] amounted to 43.4%. Further, the IC50 in the data set with RAW264.7 [4] was 29.8 µM. Besides, the viability at 24 h, 40 µM in data set [5] was over 90%.
Consider `CC(C)(O)[C@H]1CC[C@@](C)(C2CC[C@]3(C)[C@@H]2[C@H](O)C[C@@H]2[C@@]4(C)CC[C@H](OC(=O)CCC(=O)Nc5nncs5)C(C)(C)[C@@H]4CC[C@]23C)O1` (stereo partly drawn), for which the inhibition at 5 µM in the data set on RAW264.7 [1] was 10.8%. Also, the inhibition at 20 µM in the data set on RAW264.7 [2] was 35.7%. Further, the inhibition at 10 µM in the data set on RAW264.7 [3] worked out at 18.5%. In addition, in the data set on RAW264.7 [4], the IC50 stood at 40.3 µM. In addition, the viability at 24 h, 40 µM in data set [5] was over 90%.
Turning to `CC(C)(C)OC(=O)CC(=O)Nc1nc2c(s1)C[C@]1(C)[C@H]3C[C@@H](O)[C@@H]4C([C@]5(C)CC[C@H](C(C)(C)O)O5)CC[C@@]4(C)[C@]3(C)CC[C@H]1C2(C)C` (stereo partly drawn), the inhibition at 5 µM in the data set on RAW264.7 [1] came out at 14.3%. For the same compound, the inhibition at 20 µM in the data set on RAW264.7 [2] came to 50%. Also, the inhibition at 10 µM in the data set with RAW264.7 [3] was 29.8%. Besides, the concentration for half-maximal inhibition (IC50) with RAW264.7 [4] is 17.5 µM. Also, the viability at 24 h, 40 µM in data set [5] was over 90%.
On to `CC(C)(O)[C@@H]1CC[C@@](C)(C2CC[C@]3(C)[C@@H]2[C@H](O)C[C@@H]2[C@@]4(C)CC[C@H](O)C(C)(C)[C@@H]4CC[C@]23C)O1` (stereo partly drawn), for which the inhibition at 5 µM with RAW264.7 [1] stood at 5.58%. In addition, the inhibition at 20 µM in the data set on RAW264.7 [2] was 22.3%. Moreover, the inhibition at 10 µM with RAW264.7 [3] stood at 8.85%. Besides, the IC50 in the data set on RAW264.7 [4] stood at 30.4 µM.

The values are drawn from ChEMBL document CHEMBL5500363, “Discovery of novel ocotillol derivatives modulating glucocorticoid receptor/NF-κB signaling for the treatment of sepsis” (Eur J Med Chem, 2024).
